Reference: patent US8623392B2, “Allergen inactivating agent” (priority 2007, dated 2014)
Entries after “also recorded” stand apart in the source; their conditions may differ.

Legend:
freeze-dried Cry j1 = target: T1, freeze-dried Cry j1 (Cryptomeria japonica, UniProt P18632); assay: ELISA of freeze-dried Cry j1 after exposure to chlorine dioxide gas in 100 L-Tedlar bag; format: biochemical, Japanese cedar; details: 24 hours
T1 construct: purchased Hayashibara Biochemical Labs., Inc
Experimental: (§1) The purified Cry j1 which had been freeze-dried was reacted with chlorine dioxide gas having an average concentration of 0.08 ppm for 24 hours, and measurement was made using ELISA. As a result, 0.08 ppm of chlorine dioxide gas reduced the antigenicity of Cry j1, as compared with the case of air as a control. […] The details will be described below.
In order to examine effect of the chlorine dioxide gas on the freeze-dried Cry j1, […] of the purified Cry j1 adjusted with PBS to the concentration of 10 μg/ml was placed in a […], frozen at −30° C., and freeze-dried overnight using a suction desiccator.
The humidity was controlled using agar, and the generated chlorine dioxide solution was introduced using a syringe into a 100 L-Tedlar bag, so that the concentration therein becomes 0.1 ppm, and air inside the bag was agitated using a crisscross rotor wherein outer diameter of 60 mm×height of 17 mm. Likewise, a bag into which distilled water was introduced was used as a control. The bag was left in an environment of 24° C., and the chlorine dioxide gas concentration inside the bag was measured using a chlorine dioxide gas measuring instrument (Model 4330-SP, Interscan Corporation; measurement range 0 to 1,000 ppb), and when the value was below 0.1 ppm, the generated chlorine dioxide solution was further added to make adjustment. […]

freeze-dried Der fII = target: T2, freeze-dried Der fII (Dermatophagoides farinae, UniProt Q00855); assay: ELISA of freeze-dried Der fII after exposure to chlorine dioxide gas in 100 L-Tedlar bag; format: biochemical, mite; details: 24 hours
T2 sequence (Q00855 18-146): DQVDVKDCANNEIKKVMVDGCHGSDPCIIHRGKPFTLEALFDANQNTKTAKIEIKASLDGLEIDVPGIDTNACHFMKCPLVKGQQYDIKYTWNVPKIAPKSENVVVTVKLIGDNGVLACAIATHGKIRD
Experimental: as §1, with “Der fII” for “Cry j1”, “a” for “an average”, “0.1” for “0.08”, “Der fII,” for “Cry j1,”
In order to examine effect of the chlorine dioxide gas on the freeze-dried Der fII, 10 μl of the purified Der fII adjusted with PBS to the concentration of 10 μg/ml was placed in a 0.2-mL tube, frozen at −30° C., and freeze-dried overnight using a suction desiccator.
The humidity was controlled by a saturated salt method. Inside a Futon bag, a Tupperware containing salt or water therein was placed so as to obtain a target humidity, and next day, inside the bag, a 100 L-Tedlar bag containing the freeze-dried Der fII and a hygrometer was placed. A Tedlar bag into which chlorine dioxide was introduced was light-shielded with aluminum foil. […] The bag was left in an environment of 24° C., and the chlorine dioxide gas concentration inside bag was measured using a chlorine dioxide detector tube (No. 23M having a measurement range of 0.1 to 10 ppm, No. 23L having a measurement range of 0.025 to 1.2 ppm, GASTEC Corporation), and when the value was below 0.1 ppm, the generated chlorine dioxide gas was further added to make adjustment. […]

T1 sequence (P18632 22-374): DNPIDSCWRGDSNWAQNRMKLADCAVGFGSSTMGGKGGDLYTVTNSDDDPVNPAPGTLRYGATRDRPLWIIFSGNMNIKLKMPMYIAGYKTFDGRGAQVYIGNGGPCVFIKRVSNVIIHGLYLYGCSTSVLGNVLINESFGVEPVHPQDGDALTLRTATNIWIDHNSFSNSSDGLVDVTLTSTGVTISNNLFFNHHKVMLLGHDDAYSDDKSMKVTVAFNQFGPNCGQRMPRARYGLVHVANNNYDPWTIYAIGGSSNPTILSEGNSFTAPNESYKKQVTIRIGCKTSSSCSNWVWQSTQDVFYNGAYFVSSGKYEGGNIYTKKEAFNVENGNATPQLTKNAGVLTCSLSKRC

## [O][Cl+][O-] [chlorine dioxide gas, chlorine dioxide]
freeze-dried Cry j1; chlorine dioxide gas 0.1 ppm (average 0.08 ppm), humidity increased
  antigenicity of freeze-dried Cry j1 at higher relative humidity: further reduced; also recorded: reduced to a larger degree
freeze-dried Cry j1; chlorine dioxide gas 0.1 ppm set, 0.08 ppm (80 ppb) on average, 24° C., compared with air control
  antigenicity of freeze-dried Cry j1: remarkably reduced
freeze-dried Der fII; chlorine dioxide gas 0.1 ppm (0.09 ppm on average), 24° C., compared with air control
  antigenicity of freeze-dried Der fII: remarkably reduced
freeze-dried Der fII; chlorine dioxide gas 0.1 ppm, humidity increased
  antigenicity of freeze-dried Der fII at higher relative humidity: reduced to a larger degree; also recorded: further reduced
